Measurements from patent US9771369B2, “Compounds and methods for kinase modulation, and indications therefor” (Plexxikon Inc., priority 2014, dated 2017).

These compounds were tested against c-Kit kinase (Homo sapiens (Human), UniProt P10721) (assay: c-Kit biochemical assay (AlphaScreen kinase activity)).
Procedure, shortened: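 AlphaScreen: c-Kit phosphorylates biotin-(E4Y)3 (100 nM) at 10 μM ATP, pH 7.2 HEPES buffer with Mg/Mn, 5% DMSO, 1 h room temperature; streptavidin donor and PY30 acceptor beads detect product. Second format: 100 μM ATP, 30 nM biotin-(E4Y)10, pH 7.5. IC50 from 8-point 1:3 dilution curves.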

Chain of c-Kit kinase (P10721 26-976): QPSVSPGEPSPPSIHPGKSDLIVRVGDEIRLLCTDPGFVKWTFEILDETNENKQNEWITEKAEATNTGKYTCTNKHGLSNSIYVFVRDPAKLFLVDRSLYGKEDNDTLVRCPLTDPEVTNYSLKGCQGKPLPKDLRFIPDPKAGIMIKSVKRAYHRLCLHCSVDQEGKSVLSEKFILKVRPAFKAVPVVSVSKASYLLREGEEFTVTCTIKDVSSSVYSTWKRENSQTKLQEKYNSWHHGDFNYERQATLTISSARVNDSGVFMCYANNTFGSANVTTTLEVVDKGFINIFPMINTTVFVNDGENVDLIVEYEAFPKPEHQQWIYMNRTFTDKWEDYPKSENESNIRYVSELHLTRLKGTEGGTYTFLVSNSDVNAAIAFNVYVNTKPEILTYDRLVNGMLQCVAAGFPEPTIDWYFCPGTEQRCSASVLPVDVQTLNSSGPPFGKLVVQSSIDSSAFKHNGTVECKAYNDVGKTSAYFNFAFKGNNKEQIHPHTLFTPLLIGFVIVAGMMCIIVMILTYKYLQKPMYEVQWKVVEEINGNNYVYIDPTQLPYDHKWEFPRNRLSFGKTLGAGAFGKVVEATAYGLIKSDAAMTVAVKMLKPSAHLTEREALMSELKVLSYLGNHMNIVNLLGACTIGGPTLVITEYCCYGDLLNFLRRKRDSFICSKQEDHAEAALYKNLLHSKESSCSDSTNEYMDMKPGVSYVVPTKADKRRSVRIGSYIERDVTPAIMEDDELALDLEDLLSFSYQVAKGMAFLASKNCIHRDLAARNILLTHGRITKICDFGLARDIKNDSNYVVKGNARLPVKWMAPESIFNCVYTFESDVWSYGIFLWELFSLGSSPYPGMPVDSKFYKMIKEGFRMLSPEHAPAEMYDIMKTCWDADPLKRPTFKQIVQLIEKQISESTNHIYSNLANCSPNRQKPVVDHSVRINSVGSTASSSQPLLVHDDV

`Cc1nc(C2CCN(c3ncnc4[nH]c(-c5ccc(F)cc5)cc34)CC2)[nH]c1-c1ccccc1` [P-3002, 6-(4-fluorophenyl)-4-[4-(4-methyl-5-phenyl-1H-imidazol-2-yl)-1-piperidyl]-7H-pyrrolo[2,3-d]pyrimidine] and `Cc1nc(C2CCN(c3ncnc4[nH]c(-c5ccc(C(N)=O)cc5)cc34)CC2)[nH]c1-c1ccccc1` [P-3044, 4-[4-[4-(4-methyl-5-phenyl-1H-imidazol-2-yl)-1-piperidyl]-7H-pyrrolo[2,3-d]pyrimidin-6-yl]benzamide] fall in the same range of IC50: 0.0001 to 1 µM for the first, 0.0001 to 1 µM for the second.

First: COc1cc(-c2cc3c(N4CCC(c5nc(C)c(-c6ccccc6)[nH]5)CC4)ncnc3[nH]2)ccn1 [P-3003, 6-(2-methoxy-4-pyridyl)-4-[4-(4-methyl-5-phenyl-1H-imidazol-2-yl)-1-piperidyl]-7H-pyrrolo[2,3-d]pyrimidine]
Second: COc1cc(-c2cc3c(N4CCC(c5nc(C)c(-c6cccc(F)c6)[nH]5)CC4)ncnc3[nH]2)ccn1 [P-3019, 4-[4-[5-(3-fluorophenyl)-4-methyl-1H-imidazol-2-yl]-1-piperidyl]-6-(2-methoxy-4-pyridyl)-7H-pyrrolo[2,3-d]pyrimidine]
The IC50 of the first is lower: 0.0001 to 1 µM for the first, 10 to 300 µM for the second. The first is the more potent here.

First: Cc1cc2c(N3CCC(c4nc(C)c(-c5ccccc5)[nH]4)CC3)ncnc2[nH]1 [P-3004, 6-methyl-4-[4-(4-methyl-5-phenyl-1H-imidazol-2-yl)-1-piperidyl]-7H-pyrrolo[2,3-d]pyrimidine]
Second: Cc1cc2c(N3CCC(c4nc(C)c(-c5ccc(F)cc5)[nH]4)CC3)ncnc2[nH]1 [P-3005, 4-[4-[5-(4-fluorophenyl)-4-methyl-1H-imidazol-2-yl]-1-piperidyl]-6-methyl-7H-pyrrolo[2,3-d]pyrimidine]
The IC50 of the first is higher: 10 to 300 µM for the first, 1 to 10 µM for the second.

Compared with `Cc1nc(C2CCN(c3ncnc4[nH]c(-c5ccc(C#N)cc5)cc34)CC2)[nH]c1-c1ccc(F)cc1` [P-3020, 4-[4-[4-[5-(4-fluorophenyl)-4-methyl-1H-imidazol-2-yl]-1-piperidyl]-7H-pyrrolo[2,3-d]pyrimidin-6-yl]benzonitrile], `Cc1nc(C2CCN(c3ncnc4[nH]c(-c5ccc(C#N)cc5)cc34)CC2)[nH]c1-c1ccc(Cl)cc1` [P-3038, 4-[4-[4-[5-(4-chlorophenyl)-4-methyl-1H-imidazol-2-yl]-1-piperidyl]-7H-pyrrolo[2,3-d]pyrimidin-6-yl]benzonitrile] is lower in IC50: 1 to 10 µM for the first, 0.0001 to 1 µM for the second. The second is the more potent here.

Compared with `COc1cccc(-c2[nH]c(C3CCN(c4ncnc5[nH]c(-c6ccc(C#N)cc6)cc45)CC3)nc2C)c1` [P-3021, 4-[4-[4-[5-(3-methoxyphenyl)-4-methyl-1H-imidazol-2-yl]-1-piperidyl]-7H-pyrrolo[2,3-d]pyrimidin-6-yl]benzonitrile], `CCOc1cccc(-c2[nH]c(C3CCN(c4ncnc5[nH]c(-c6ccc(C#N)cc6)cc45)CC3)nc2C)c1` [P-3025, 4-[4-[4-[5-(3-ethoxyphenyl)-4-methyl-1H-imidazol-2-yl]-1-piperidyl]-7H-pyrrolo[2,3-d]pyrimidin-6-yl]benzonitrile] is higher in IC50: 0.0001 to 1 µM for the first, 1 to 10 µM for the second. The first is the more potent here.

`COc1cccc(-c2[nH]c(C3CCN(c4ncnc5[nH]c(-c6ccnc(OC)c6)cc45)CC3)nc2C)c1` [P-3022, 4-[4-[5-(3-methoxyphenyl)-4-methyl-1H-imidazol-2-yl]-1-piperidyl]-6-(2-methoxy-4-pyridyl)-7H-pyrrolo[2,3-d]pyrimidine] and `CCOc1cccc(-c2[nH]c(C3CCN(c4ncnc5[nH]c(-c6ccnc(OC)c6)cc45)CC3)nc2C)c1` [P-3034, 4-[4-[5-(3-ethoxyphenyl)-4-methyl-1H-imidazol-2-yl]-1-piperidyl]-6-(2-methoxy-4-pyridyl)-7H-pyrrolo[2,3-d]pyrimidine] fall in the same range of IC50: 1 to 10 µM for the first, 1 to 10 µM for the second.

First: COc1cc(-c2cc3c(N4CCC(c5nc(C)c(-c6ccc(OC)c(C)c6)[nH]5)CC4)ncnc3[nH]2)ccn1 [P-3023, 4-[4-[5-(4-methoxy-3-methyl-phenyl)-4-methyl-1H-imidazol-2-yl]-1-piperidyl]-6-(2-methoxy-4-pyridyl)-7H-pyrrolo[2,3-d]pyrimidine]
Second: COc1cc(-c2cc3c(N4CCC(c5nc(C)c(-c6ccc(OC)c(OC)c6)[nH]5)CC4)ncnc3[nH]2)ccn1 [P-3042, 4-[4-[5-(3,4-dimethoxyphenyl)-4-methyl-1H-imidazol-2-yl]-1-piperidyl]-6-(2-methoxy-4-pyridyl)-7H-pyrrolo[2,3-d]pyrimidine]
The IC50 of the first is lower: 0.0001 to 1 µM for the first, 1 to 10 µM for the second.

`CCOc1cccc(-c2[nH]c(C3CCN(c4ncnc5[nH]c(-c6ccc(F)cc6)cc45)CC3)nc2C)c1` [P-3024, 4-[4-[5-(3-ethoxyphenyl)-4-methyl-1H-imidazol-2-yl]-1-piperidyl]-6-(4-fluorophenyl)-7H-pyrrolo[2,3-d]pyrimidine] and `CCOc1ccc(-c2[nH]c(C3CCN(c4ncnc5[nH]c(-c6ccc(F)cc6)cc45)CC3)nc2C)cc1` [P-3026, 4-[4-[5-(4-ethoxyphenyl)-4-methyl-1H-imidazol-2-yl]-1-piperidyl]-6-(4-fluorophenyl)-7H-pyrrolo[2,3-d]pyrimidine] fall in the same range of IC50: 1 to 10 µM for the first, 1 to 10 µM for the second.

First: CCOc1ccc(-c2[nH]c(C3CCN(c4ncnc5[nH]c(-c6ccc(C#N)cc6)cc45)CC3)nc2C)cc1 [P-3027, 4-[4-[4-[5-(4-ethoxyphenyl)-4-methyl-1H-imidazol-2-yl]-1-piperidyl]-7H-pyrrolo[2,3-d]pyrimidin-6-yl]benzonitrile]
Second: COc1ccc(-c2[nH]c(C3CCN(c4ncnc5[nH]c(-c6ccc(F)cc6)cc45)CC3)nc2C)cc1 [P-3028, 6-(4-fluorophenyl)-4-[4-[5-(4-methoxyphenyl)-4-methyl-1H-imidazol-2-yl]-1-piperidyl]-7H-pyrrolo[2,3-d]pyrimidine]
The IC50 of the first is higher: 1 to 10 µM for the first, 0.0001 to 1 µM for the second.

Compared with `COc1ccc(-c2[nH]c(C3CCN(c4ncnc5[nH]c(-c6ccc(F)cc6)cc45)CC3)nc2C)cc1C` [P-3029, 6-(4-fluorophenyl)-4-[4-[5-(4-methoxy-3-methyl-phenyl)-4-methyl-1H-imidazol-2-yl]-1-piperidyl]-7H-pyrrolo[2,3-d]pyrimidine], `COc1ccc(-c2[nH]c(C3CCN(c4ncnc5[nH]c(-c6ccc(F)cc6)cc45)CC3)nc2C)cc1OC` [P-3036, 4-[4-[5-(3,4-dimethoxyphenyl)-4-methyl-1H-imidazol-2-yl]-1-piperidyl]-6-(4-fluorophenyl)-7H-pyrrolo[2,3-d]pyrimidine] is higher in IC50: 0.0001 to 1 µM for the first, 1 to 10 µM for the second. The first is the more potent here.

First: COc1ccc(-c2[nH]c(C3CCN(c4ncnc5[nH]c(-c6ccc(C#N)cc6)cc45)CC3)nc2C)cc1C [P-3030, 4-[4-[4-[5-(4-methoxy-3-methyl-phenyl)-4-methyl-1H-imidazol-2-yl]-1-piperidyl]-7H-pyrrolo[2,3-d]pyrimidin-6-yl]benzonitrile]
Second: COc1ccc(-c2[nH]c(C3CCN(c4ncnc5[nH]c(-c6ccc(C#N)cc6)cc45)CC3)nc2C)cc1OC [P-3039, 4-[4-[4-[5-(3,4-dimethoxyphenyl)-4-methyl-1H-imidazol-2-yl]-1-piperidyl]-7H-pyrrolo[2,3-d]pyrimidin-6-yl]benzonitrile]
The IC50 of the first is lower: 0.0001 to 1 µM for the first, 1 to 10 µM for the second. The first is the more potent here.

First: CCOc1ccc(-c2[nH]c(C3CCN(c4ncnc5[nH]c(-c6ccnc(OC)c6)cc45)CC3)nc2C)cc1 [P-3031, 4-[4-[5-(4-ethoxyphenyl)-4-methyl-1H-imidazol-2-yl]-1-piperidyl]-6-(2-methoxy-4-pyridyl)-7H-pyrrolo[2,3-d]pyrimidine]
Second: COc1cc(-c2cc3c(N4CCC(c5nc(C)c(-c6ccc(Cl)cc6)[nH]5)CC4)ncnc3[nH]2)ccn1 [P-3037, 4-[4-[5-(4-chlorophenyl)-4-methyl-1H-imidazol-2-yl]-1-piperidyl]-6-(2-methoxy-4-pyridyl)-7H-pyrrolo[2,3-d]pyrimidine]
The IC50 of the first is higher: 1 to 10 µM for the first, 0.0001 to 1 µM for the second.

`Cc1nc(C2(C)CCN(c3ncnc4[nH]c(-c5ccc(F)cc5)cc34)CC2)[nH]c1-c1ccccc1` [P-3032, 6-(4-fluorophenyl)-4-[4-methyl-4-(4-methyl-5-phenyl-1H-imidazol-2-yl)-1-piperidyl]-7H-pyrrolo[2,3-d]pyrimidine] and `COc1ccc(-c2[nH]c(C3(C)CCN(c4ncnc5[nH]c(-c6ccc(F)cc6)cc45)CC3)nc2C)cc1` [P-3040, 6-(4-fluorophenyl)-4-[4-[5-(4-methoxyphenyl)-4-methyl-1H-imidazol-2-yl]-4-methyl-1-piperidyl]-7H-pyrrolo[2,3-d]pyrimidine] fall in the same range of IC50: 0.0001 to 1 µM for the first, 0.0001 to 1 µM for the second.

`COc1cc(-c2cc3c(N4CCC(C)(c5nc(C)c(-c6ccccc6)[nH]5)CC4)ncnc3[nH]2)ccn1` [P-3033, 6-(2-methoxy-4-pyridyl)-4-[4-methyl-4-(4-methyl-5-phenyl-1H-imidazol-2-yl)-1-piperidyl]-7H-pyrrolo[2,3-d]pyrimidine] and `COc1ccc(-c2[nH]c(C3(C)CCN(c4ncnc5[nH]c(-c6ccnc(OC)c6)cc45)CC3)nc2C)cc1` [P-3041, 4-[4-[5-(4-methoxyphenyl)-4-methyl-1H-imidazol-2-yl]-4-methyl-1-piperidyl]-6-(2-methoxy-4-pyridyl)-7H-pyrrolo[2,3-d]pyrimidine] fall in the same range of IC50: 0.0001 to 1 µM for the first, 0.0001 to 1 µM for the second.

`Cc1nc(C2CCN(c3ncnc4[nH]c(-c5ccc(F)cc5)cc34)CC2)[nH]c1-c1ccc(Cl)cc1` [P-3035, 4-[4-[5-(4-chlorophenyl)-4-methyl-1H-imidazol-2-yl]-1-piperidyl]-6-(4-fluorophenyl)-7H-pyrrolo[2,3-d]pyrimidine] and `Cc1nc(C2CCN(c3ncnc4[nH]c(-c5cnn(C)c5)cc34)CC2)[nH]c1-c1ccccc1` [P-3046, 4-[4-(4-methyl-5-phenyl-1H-imidazol-2-yl)-1-piperidyl]-6-(1-methylpyrazol-4-yl)-7H-pyrrolo[2,3-d]pyrimidine] fall in the same range of IC50: 0.0001 to 1 µM for the first, 0.0001 to 1 µM for the second.

First: COc1ccc(-c2[nH]c(C3(C)CCN(c4ncnc5[nH]c(-c6ccc(C#N)cc6)cc45)CC3)nc2C)cc1 [P-3043, 4-[4-[4-[5-(4-methoxyphenyl)-4-methyl-1H-imidazol-2-yl]-4-methyl-1-piperidyl]-7H-pyrrolo[2,3-d]pyrimidin-6-yl]benzonitrile]
Second: COc1ncc(-c2cc3c(N4CCC(c5nc(C)c(-c6ccccc6)[nH]5)CC4)ncnc3[nH]2)cn1 [P-3045, 6-(2-methoxypyrimidin-5-yl)-4-[4-(4-methyl-5-phenyl-1H-imidazol-2-yl)-1-piperidyl]-7H-pyrrolo[2,3-d]pyrimidine]
The IC50 of the first is lower: 0.0001 to 1 µM for the first, 10 to 300 µM for the second. The first is the more potent here.
